{"source": "patent US20210353624A1", "about": "“METHOD OF TREATING CANCER WITH TELOTRISAT OR A PRODRUG THEREOF” (TerSera Therapeutics LLC, priority 2020, published 2021)", "key": {"[1]": {"tested_on": "colon cancer (HT-29)", "experiment": "Cell confluence of tumor cell line grown with telotristat ethyl", "format": "cell-based", "conditions": "HT-29 cells; 0, 5, 15 and 30 μM telotristat ethyl; 24 to 96 hours; impact ranked between 94T778 and TFK-1", "procedure": "(§1) This example provides experiments assessing the effects of telotristat ethyl on three aggressive cancer cell lines—liposarcoma (94T778), colon cancer (HT-29), and cholangiocarcinoma (TFK-1)—and three “normal” cell lines—fallopian tube epithelium (FT240), ovarian surface epithelium (OSE22), and first trimester placental fibroblasts (FTP).\n(§2) The cells were grown with 0, 5, 15 and 30 μM telotristat ethyl, plated into four-chambered slides with an initial confluence of at least 30%, and cultured for 24 to 96 hours. At the end of each 24-hour period, cell density was measured with hematoxylin, and the presence of 5-HT was assessed by immunohistochemistry. Experiments were performed in triplicate. Cell confluence was determined, and the 5-HT expression was recorded as an H-score."}, "[2]": {"tested_on": "liposarcoma (94T778)", "experiment": "Cell confluence of tumor cell line grown with telotristat ethyl", "format": "cell-based", "conditions": "94T778 cells; 0, 5, 15 and 30 μM telotristat ethyl; 24 to 96 hours; confluence decreased progressively with concentration", "procedure": "as §1, §2"}, "[3]": {"tested_on": "5-HT", "experiment": "Biomarker changes after TE initiation (TELEACE): 5-HT", "format": "in vivo, human", "conditions": "n=22", "procedure": "This example provides the effects of telotristat ethyl treatment on selected patient biomarkers (i.e., u5-HIAA; CgA; 5-HT; and NT-proBNP) in the retrospective, single arm study of Example 4.\nThe average (SD) duration of documented TE treatment was 12.0 (7.3) months with a median (IQR) of 9.0 (6.8, 15.2) months. In many cases, a patient received a TE dosage of 250 mg three times per day.\nThe continuous measures of biomarker values pre- and post-TE initiation were described using mean, SD, median, and IQR. The biomarkers were assessed only among patients with complete biomarker assessment results in both pre-TE and post-TE initiation periods. A Wilcoxon signed rank test was used to calculate P-values for the mean change in biomarker value.\nPatients with reported biomarker values below, at, or above normal range in pre-TE and post-TE initiation periods were described using proportions and frequencies. The biomarkers were assessed only among patients with complete biomarker assessment results in both pre-TE and post-TE initiation periods. McNemar's test was used to calculate P-values for the differences in paired proportions of patients with values above the upper limit of normal.\nTo evaluate the relationship between the change in biomarker values (i.e., u5-HIAA; CgA; 5-HT) and the change in tumor progression between the pre- and post-TE periods, Pearson's correlation coefficient was used to assess the correlation between biomarker assessments and tumor sizes and to derive the associated P-values. The correlations were assessed only among patients with complete biomarker assessment results in both pre-TE and post-TE initiation periods. The relationship between biomarker values and tumor sizes during pre-TE and post-TE initiation period was presented using scatterplots.\nFor the biomarker results below, the pre-TE initiation period is defined as 12 months before the index date (initiation of TE). The assessment closest to the index date during the pre-TE period was reported for each biomarker.\nThe post-TE initiation period is defined as a period from index date to the earlier of end of treatment with TE or date of chart abstraction. The assessment closest to the date of chart abstraction during the post-TE period was reported for each biomarker.\nThe data includes patients with reported biomarker values, units, and laboratory ranges during pre- and post-TE initiation periods. It excludes patients who had different biomarker units or laboratory ranges reported pre- and post-TE initiation.\nThe normal range was defined by reported laboratory lower limit of normal and upper limit of normal.\nThe Wilcoxon signed rank test was used to calculate P-values for the mean change in biomarker values pre- and post-TE initiation.\nTable 5-4 is based on patients who had complete biomarker assessment results (u5-HIAA: N=22; 5-HT: N=22) in both pre-TE and post-TE initiation periods. Correlation analysis was not conducted for CgA and NT-proBNP due to small sample sizes for CgA (n=15) and NT-proBNP (n=2). Pearson's correlation coefficient was used to assess the correlation between biomarker assessments and tumor sizes and to derive the associated P-values. Values have been converted to mg/24 hours based on the following conversion rate: […]."}, "[4]": {"experiment": "Physician assessed outcomes in TELEACE subgroup with worsening tumor status at TE initiation", "format": "in vivo, human", "from_the_text": "A follow-up analysis of real-world clinical practice experience with TE was initiated in patients with physician-documented worsening tumor status based on radiological reports. The analysis was directed to the subgroup of patients from the TELEACE study with worsening tumor status at the time of TE initiation. Baseline carcinoid syndrome (CS) symptoms, Eastern Cooperative Oncology Group (ECOG) performance status, and weight were compared after at least six months of TE treatment.\nA total of 33 patients (17%) in TELEACE had worsened tumor status at the time TE of initiation. The mean patient age was 60 years, with 58% female and 76% white. The majority of these patients had intermediate grade tumor (67%). Prior to TE initiation, 61% had received SSA treatment, and 33% had received other NET treatment, which included liver-directed therapy, surgery, chemotherapy, targeted therapy, and Peptide Receptor Radionuclide Therapy (PRRT). The average duration of TE treatment was 14±10.5 months. […] Additionally, a majority of patients had significant improvement/remained stable in CS symptoms, ECOG performance status, and weight after TE initiation (Table 6)."}, "[5]": {"tested_on": "human intrahepatic CCA cells CCLP-1", "experiment": "Tumor growth study in CCLP-1 subcutaneous xenografts", "format": "in vivo, NOD/SCID mice", "method": "The human intrahepatic CCA cells CCLP-1 were cultured in DMEM containing 10% FBS. Animal survival was studied in a peritoneal dissemination model, and a tumor growth study was performed in subcutaneous xenografts using 4-6 weeks old female NOD/SCID mice by injecting 10×10^6 CCLP-1 cells per mouse. Ten days after tumor cell injection, mice were randomized (n=4-7) to receive PBS (control), gemcitabine (50 mg/kg, 2×wk), cisplatin (2.5 mg/kg, 2×wk survival study, 1×wk tumor growth study), nab-paclitaxel (5 mg/kg, 2×wk) or telotristat ethyl (100 mg/kg, 5×wk), for two weeks. In the survival study, mice were monitored daily and euthanized when moribund, and survival was measured from the first day of treatment until death. In the tumor growth study, tumor size was measured twice per week and tumor volume was measured using the formula V=½ (L×W2, with L=length and W=width). Comparative statistics utilized one-way ANOVA, Student's t-test and logrank methods."}}, "data": [{"smiles": "CCOC(=O)[C@@H](N)Cc1ccc(-c2cc(O[C@H](c3ccc(Cl)cc3-n3ccc(C)n3)C(F)(F)F)nc(N)n2)cc1", "note": "[telotristat ethyl, (S)-ethyl 2-amino-3-(4-(2-amino-6-((R)-1-(4-chloro-2-(3-methyl-1H-pyrazol-1-yl)phenyl)-2,2,2-trifluoroethoxy)pyrimidin-4-yl)phenyl)propanoate]", "values": [{"measurement": "cell confluence", "setting": "[1]", "result": "between these two"}, {"measurement": "cell confluence", "setting": "[2]", "result": "most impacted"}, {"measurement": "5-HT Measurement (ng/24 hours) Post-TE Initiation, Median (IQR)", "setting": "[3]; IQR 320.0, 700.0, pre-TE 459.5 (389.0, 701.0)", "result": 399.5, "unit": "ng/24 hours"}, {"measurement": "5-HT Below normal range Post-TE, n (%)", "setting": "[3]; pre-TE 0 (0)", "result": "0 (0) n (%)"}, {"measurement": "5-HT At normal range Post-TE, n (%)", "setting": "[3]; pre-TE 1 (4.5)", "result": "2 (9.1) n (%)"}, {"measurement": "5-HT Above normal range Post-TE, n (%)", "setting": "[3]; pre-TE 21 (95.5), P=0.317", "result": "20 (90.9) n (%)"}, {"measurement": "5-HT Measurement (ng/24 hours) Post-TE Initiation, Mean ± SD", "setting": "[3]; pre-TE 648.9 ± 448.1, P=0.026", "result": "533.5 ± 329.2", "unit": "ng/24 hours"}, {"measurement": "Diarrhea: Improved", "setting": "[4]; 33 patients with worsened tumor status at TE initiation, n = 26, P<0.001", "result": 88, "unit": "%"}, {"measurement": "CS symptoms compared to baseline measures", "setting": "[4]; 33 patients with worsened tumor status, TE treatment 14±10.5 months", "result": "each patient experienced improvement in at least one CS symptom"}, {"measurement": "Nausea: Remained the Same", "setting": "[4]; worsened tumor status subgroup, n = 4", "result": 20, "unit": "%"}, {"measurement": "Nausea: Improved", "setting": "[4]; worsened tumor status subgroup, n = 4, P=0.432", "result": 80, "unit": "%"}, {"measurement": "Abdominal pain: Remained the Same", "setting": "[4]; worsened tumor status subgroup, n = 8", "result": 11, "unit": "%"}, {"measurement": "Abdominal pain: Improved", "setting": "[4]; worsened tumor status subgroup, n = 8, P=0.020", "result": 89, "unit": "%"}, {"measurement": "Flushing: Remained the Same", "setting": "[4]; worsened tumor status subgroup, n = 14", "result": 18, "unit": "%"}, {"measurement": "Flushing: Improved", "setting": "[4]; worsened tumor status subgroup, n = 14, P=0.008", "result": 82, "unit": "%"}, {"measurement": "Diarrhea: Remained the Same", "setting": "[4]; worsened tumor status subgroup, n = 26", "result": 12, "unit": "%"}, {"measurement": "Weight: Remained the Same", "setting": "[4]; worsened tumor status subgroup, n = 31", "result": 55, "unit": "%"}, {"measurement": "Weight: Improved", "setting": "[4]; worsened tumor status subgroup, n = 31, P=0.017", "result": 32, "unit": "%"}, {"measurement": "ECOG score: Remained the Same", "setting": "[4]; worsened tumor status subgroup, n = 33", "result": 73, "unit": "%"}, {"measurement": "ECOG score: Improved", "setting": "[4]; worsened tumor status subgroup, n = 33, P<0.001", "result": 24, "unit": "%"}, {"measurement": "tumor weight at the completion of therapy", "setting": "[5]; controls 0.187 g", "result": 0.091, "unit": "g"}, {"measurement": "net tumor growth", "setting": "[5]; gemcitabine 50 mg/kg 2×wk, cisplatin 2.5 mg/kg 1×wk, nab-paclitaxel 5 mg/kg 2×wk, telotristat ethyl 100 mg/kg 5×wk, two weeks, controls 199 mm^3", "result": 93, "unit": "mm^3"}]}]}
